# From paper PMC9705435, “Thiocarbazate building blocks enable the construction of azapeptides for rapid development of therapeutic candidates” (Nature Communications, 2022)
# Numbered stars: 1 amine (or outer) side, 2 acyl side, 3 side chain; on linkers, the order of the positions; unused ones are H or OH. Square brackets hold non-standard residues; d marks the D form. Peptide text beside a SMILES is read from it. azaPhe = O=C(N(Cc1ccccc1)N[*:1])[*:2]; azaPro = O=C(N1CCCN1[*:1])[*:2]
# Tests used:
# [1] = molecular target: T1, Human B2 (h) receptor (B2R) (Homo sapiens, UniProt P30411); experiment: Human B2 (h) (agonist radioligand) receptor binding assay, [3H]bradykinin displacement
# T1 construct: host or cells: CHO cells
# T1 sequence (P30411 1-391): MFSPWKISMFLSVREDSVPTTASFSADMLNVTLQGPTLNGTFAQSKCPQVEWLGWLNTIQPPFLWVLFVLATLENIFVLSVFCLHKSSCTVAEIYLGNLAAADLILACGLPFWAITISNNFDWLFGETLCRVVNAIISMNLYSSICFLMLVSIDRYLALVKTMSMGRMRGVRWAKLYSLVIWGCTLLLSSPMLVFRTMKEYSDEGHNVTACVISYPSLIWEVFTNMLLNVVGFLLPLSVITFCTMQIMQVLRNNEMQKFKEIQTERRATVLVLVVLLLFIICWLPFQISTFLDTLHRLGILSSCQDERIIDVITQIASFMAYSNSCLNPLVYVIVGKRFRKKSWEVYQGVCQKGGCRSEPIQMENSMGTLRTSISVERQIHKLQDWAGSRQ
# From the text: The data was collected by CRO Eurofins Cerep (France) and the result is attached as an additional data file. B2R radioligand agonist binding displacement assay for determination of IC-50.
# Test compounds (FI-U / [azaP2, azaF8-BK (70), FI-2V / azaF8-BK (68), and FI-8G / azaP2-BK (63)) were supplied to Eurofins in a blinded manner and run at five concentrations to determine the IC-50’s. Standard company control test compounds were used for assay validation. Experimental assays achieved inhibition of more than 50% and were considered to represent significant effects of the test compounds.
# (B2(h)) was used as the agonist for B2R receptor binding. The results are expressed as a percent of control specific binding (measured specific binding /control specific binding)*100, and as a percent inhibition of control specific binding (100 minus (measured specific binding/ control specific binding)*100) obtained in the presence of the test compounds. The IC50 values (concentration causing a half-maximal inhibition of control specific binding) and Hill coefficients (nH) were determined by non-linear regression analysis of the competition curves generated with mean replicate values using Hill equation curve fitting Y=D+[ A-D / 1+(C/C50) nH] where Y = specific binding, A = left asymptote of the curve, D = right asymptote of the curve, C = compound concentration, C50 = IC50, and nH = slope factor. This analysis was performed using software developed at Cerep (Hill software) and validated by comparison with data generated by the commercial software SigmaPlot® 4.0 for […]
# The inhibition constants (Ki) were calculated using the Cheng Prusoff equation. Ki=IC50/(1+L/Kd) where L = concentration of radioligand in the assay, and Kd = affinity of the radioligand for the receptor. A scatchard plot is used to determine the Kd. […]
# 9.1. Experimental Conditions
# 9.1.1. In Vitro Pharmacology: Binding Assays
# Assay Source Ligand Conc. Kd Non Specific Incubation Detection Bibl.
# (agonist recombinant (1 µM) RT counting
# 9.2. Analysis and expression of results
# 9.2.1. In Vitro Pharmacology: Binding Assays
# The results are expressed as a percent of control specific binding measured specific binding *100 […]
# and as a percent inhibition of control specific binding
# 100-( measured specific binding *100) […]
# obtained in the presence of the test compounds.
# The IC50 values (concentration causing a half-maximal inhibition of control specific binding) and Hill coefficients (nH) were determined by non-linear regression analysis of the competition curves generated with mean replicate values using Hill equation […]
# where Y = specific binding, A = left asymptote of the curve, D = right asymptote of the curve, C = compound concentration, C50 = IC50, and nH = slope factor. This analysis was performed using software developed at Cerep (Hill software) and validated by […]
# The inhibition constants (Ki ) were calculated using the Cheng Prusoff equation where L = concentration of radioligand in the assay, and KD = affinity of the radioligand for the receptor. A scatchard plot is used to […]
# 3T3 cells = molecular target: T2, 3T3 cells (Mus musculus, UniProt P32299); experiment: PGE2 induction in 3T3 fibroblasts (ELISA); format: cell-based; details: 7 min, serum-free medium
# T2 sequence (P32299 1-392): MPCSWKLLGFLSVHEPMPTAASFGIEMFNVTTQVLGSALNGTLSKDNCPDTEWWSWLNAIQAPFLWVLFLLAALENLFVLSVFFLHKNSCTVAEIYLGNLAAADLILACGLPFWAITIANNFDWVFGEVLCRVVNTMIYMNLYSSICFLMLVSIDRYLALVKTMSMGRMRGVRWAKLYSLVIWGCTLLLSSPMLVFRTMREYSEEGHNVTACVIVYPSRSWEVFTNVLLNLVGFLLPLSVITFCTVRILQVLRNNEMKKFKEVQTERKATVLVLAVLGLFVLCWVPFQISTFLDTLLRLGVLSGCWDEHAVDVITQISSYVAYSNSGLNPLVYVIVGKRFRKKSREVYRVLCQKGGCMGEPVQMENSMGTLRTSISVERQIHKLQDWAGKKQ
# in vitro = details: male, C57BL/6J, mouse, blood
smiles,measurement,setting,value
"N=C(N)NCCC[C@H](NC(=O)[C@H](Cc1ccccc1)NC(=O)[C@@H]1CCCN1C(=O)[C@H](CO)NC(=O)[C@H](Cc1ccccc1)NC(=O)CNC(=O)[C@@H]1CCCN1C(=O)N1CCCN1C(=O)[C@@H](N)CCCNC(=N)N)C(=O)O [Compound 63, RazaP^2PGFSPFR] (H-R[azaPro]PGFSPFR-OH; N-terminus and C-terminus assumed)",IC50,[1],7.9 nM
same,Ki,[1],4.5 nM
same,"% Inhibition of Control Specific Binding, 1st",[1]; 1.0E-06 M,98.9%
same,"% Inhibition of Control Specific Binding, 2nd",[1]; 1.0E-06 M,98.6%
same,"% Inhibition of Control Specific Binding, Mean",[1]; 1.0E-06 M,98.8%
same,"% Inhibition of Control Specific Binding, 1st",[1]; 1.0E-07 M,94.6%
same,"% Inhibition of Control Specific Binding, 2nd",[1]; 1.0E-07 M,95.1%
same,"% Inhibition of Control Specific Binding, Mean",[1]; 1.0E-07 M,94.9%
same,"% Inhibition of Control Specific Binding, 1st",[1]; 1.0E-08 M,58.5%
same,"% Inhibition of Control Specific Binding, 2nd",[1]; 1.0E-08 M,56.4%
same,"% Inhibition of Control Specific Binding, Mean",[1]; 1.0E-08 M,57.4%
same,"% Inhibition of Control Specific Binding, 1st",[1]; 1.0E-09 M,0.2%
same,"% Inhibition of Control Specific Binding, 2nd",[1]; 1.0E-09 M,-3.4%
same,"% Inhibition of Control Specific Binding, Mean",[1]; 1.0E-09 M,-1.6%
same,"% Inhibition of Control Specific Binding, 1st",[1]; 3.0E-08 M,86.3%
same,"% Inhibition of Control Specific Binding, 2nd",[1]; 3.0E-08 M,63.9%
same,"% Inhibition of Control Specific Binding, Mean",[1]; 3.0E-08 M,75.1%
same,EC50,3T3 cells,61.1 nM
same,half-life,in vitro,5.4 ± 1.1 min
"N=C(N)NCCC[C@H](NC(=O)N(Cc1ccccc1)NC(=O)[C@@H]1CCCN1C(=O)[C@H](CO)NC(=O)[C@H](Cc1ccccc1)NC(=O)CNC(=O)[C@@H]1CCCN1C(=O)[C@@H]1CCCN1C(=O)[C@@H](N)CCCNC(=N)N)C(=O)O [Compound 68, RPPGFSPazaF^8R] (H-RPPGFSP[azaPhe]R-OH; N-terminus and C-terminus assumed)",IC50,[1],8.8 nM
same,Ki,[1],4.1 nM
same,"% Inhibition of Control Specific Binding, 1st",[1]; 1.0E-06 M,99.7%
same,"% Inhibition of Control Specific Binding, 2nd",[1]; 1.0E-06 M,100.1%
same,"% Inhibition of Control Specific Binding, Mean",[1]; 1.0E-06 M,99.9%
same,"% Inhibition of Control Specific Binding, 1st",[1]; 1.0E-07 M,98.0%
same,"% Inhibition of Control Specific Binding, 2nd",[1]; 1.0E-07 M,95.2%
same,"% Inhibition of Control Specific Binding, Mean",[1]; 1.0E-07 M,96.6%
same,"% Inhibition of Control Specific Binding, 1st",[1]; 1.0E-08 M,61.5%
same,"% Inhibition of Control Specific Binding, 2nd",[1]; 1.0E-08 M,66.7%
same,"% Inhibition of Control Specific Binding, Mean",[1]; 1.0E-08 M,64.1%
same,"% Inhibition of Control Specific Binding, 1st",[1]; 1.0E-09 M,8.0%
same,"% Inhibition of Control Specific Binding, 2nd",[1]; 1.0E-09 M,2.9%
same,"% Inhibition of Control Specific Binding, Mean",[1]; 1.0E-09 M,5.4%
same,"% Inhibition of Control Specific Binding, 1st",[1]; 3.0E-08 M,72.4%
same,"% Inhibition of Control Specific Binding, 2nd",[1]; 3.0E-08 M,64.6%
same,"% Inhibition of Control Specific Binding, Mean",[1]; 3.0E-08 M,68.5%
same,EC50,3T3 cells,99.6 nM
same,half-life,in vitro,39.3 ± 2.5 min
"N=C(N)NCCC[C@H](NC(=O)N(Cc1ccccc1)NC(=O)[C@@H]1CCCN1C(=O)[C@H](CO)NC(=O)[C@H](Cc1ccccc1)NC(=O)CNC(=O)[C@@H]1CCCN1C(=O)N1CCCN1C(=O)[C@@H](N)CCCNC(=N)N)C(=O)O [Compound 70, RazaP^2PGFSPazaF^8R] (H-R[azaPro]PGFSP[azaPhe]R-OH; N-terminus and C-terminus assumed)",IC50,[1],11 nM
same,Ki,[1],5.6 nM
same,"% Inhibition of Control Specific Binding, 1st",[1]; 1.0E-06 M,97.1%
same,"% Inhibition of Control Specific Binding, 2nd",[1]; 1.0E-06 M,99.5%
same,"% Inhibition of Control Specific Binding, Mean",[1]; 1.0E-06 M,98.3%
same,"% Inhibition of Control Specific Binding, 1st",[1]; 1.0E-07 M,84.7%
same,"% Inhibition of Control Specific Binding, 2nd",[1]; 1.0E-07 M,91.4%
same,"% Inhibition of Control Specific Binding, Mean",[1]; 1.0E-07 M,88.1%
same,"% Inhibition of Control Specific Binding, 1st",[1]; 1.0E-08 M,36.3%
same,"% Inhibition of Control Specific Binding, 2nd",[1]; 1.0E-08 M,48.4%
same,"% Inhibition of Control Specific Binding, Mean",[1]; 1.0E-08 M,42.3%
same,"% Inhibition of Control Specific Binding, 1st",[1]; 1.0E-09 M,-9.2%
same,"% Inhibition of Control Specific Binding, 2nd",[1]; 1.0E-09 M,8.0%
same,"% Inhibition of Control Specific Binding, Mean",[1]; 1.0E-09 M,-0.6%
same,"% Inhibition of Control Specific Binding, 1st",[1]; 3.0E-08 M,67.6%
same,"% Inhibition of Control Specific Binding, 2nd",[1]; 3.0E-08 M,73.7%
same,"% Inhibition of Control Specific Binding, Mean",[1]; 3.0E-08 M,70.6%
same,EC50,3T3 cells,80.6 nM
same,half-life,in vitro,29.2 ± 3.8 min
